# Publication PMC7898822, “RNA‐PROTACs: Degraders of RNA‐Binding Proteins” (Angewandte Chemie (International Ed. in English), 2020)
# Key:
# myc-Lin28A = test: Ubiquitination assay of myc-Lin28A in 22Rv1 cells; format: cell-based; settings: HA-Ub co-transfected, 500 nM, 48 h, anti-HA western blot after cMyc IP
# Procedure: (§1) Next, we investigated the ability of ORN3P1 and ORN7P1 to mediate ubiquitination of Lin28 in cells, using a previously described protocol. ^[32] Cells from the prostate cancer cell line 22RV1, which express very low levels of Lin28, were co‐transfected with two plasmids expressing pCMV‐myc‐Lin28A and HA‐tagged polyubiquitin (HA‐Ub).
# (§2) After 48 h of incubation with ORN3P1 and ORN7P1, the tagged Lin28 (and the control QKI) was immunoprecipitated using an anti‐Myc antibody. The isolated protein was then analyzed by western blotting using the anti‐HA and anti‐c‐Myc antibodies. Consistent with other previously described PROTAC reagents,[ ^32 , ^33 ]
# (§3) The protein extracts (12-17 µg) were run on a 4-20% SDS-PAGE and transferred on a nitrocellulose blotting membrane 0.22 µm (GE Healthcare) using the Trans-Blot transfer device (Biorad). Membranes were blocked with 5% milk and incubated with the primary antibody overnight at 4 °C. Membranes were washed with 0.05% PBS-T and reacted with the secondary antibody for 1 h in 5% milk. The proteins were detected using the anti-lin28a antibody (Cell Signaling technology, D9F5), anti-lin28b antibody (Cell Signaling technology, 4196S), anti-rbfox1 (NovusBio, NBP2-13169SS), at 1:1000 and anti-hrnp c antibody […]
# (§4) (Abcam, AB133607) at 1:10000 dilutions. […]
# (§5) on a ChemiDoc MP imager (Biorad). The intensity of the signal was quantified using the ImageJ-Fiji software. […]
# Lin28A [1] = test: Pull-down RNA ELISA, gymnosis, anti-Lin28A; format: cell-based, human; settings: 3'-biotin conjugates, K562 cells, 2 µM, 24 h; streptavidin plate; vs mock or FUS antibody
# Excerpt: Humans express two paralogs of the protein, LIN28 (Lin28A) and LIN28B (Lin28B), that play key roles in development, metabolism, and pluripotency. ^[34] Lin28 proteins are abundantly expressed during embryonic development, as well as in several tumors and tumor‐derived cell lines. ^[35] […] In order to confirm that RNA‐PROTACs bind to endogenous Lin28 in cells, we performed a pull‐down RNA ELISA assay that we have previously described. ^[36] Thus, we conjugated a biotin group to the 3′ ends of ORN3P1 and ORN7P1 and added these reagents separately on to myelogenous leukemia K562 cells. We incubated lysates from treated cells on streptavidin‐coated plates so as to capture the RNA‐PROTACs present in the cell lysates. We then assayed for the presence of Lin28A in the plates using an anti‐Lin28A antibody and a negative control anti‐FUS antibody. […]
# The protein extracts (12-17 µg) were run on a 4-20% SDS-PAGE and transferred on a nitrocellulose blotting membrane 0.22 µm (GE Healthcare) using the Trans-Blot transfer device (Biorad). […] The proteins were detected using the anti-lin28a antibody (Cell Signaling technology, D9F5), anti-lin28b antibody (Cell Signaling technology, 4196S), anti-rbfox1 (NovusBio, NBP2-13169SS), at 1:1000 and anti-hrnp c antibody […]
# as §5
# Lin28A [2] = test: Western blot of Lin28A in NT2/D1 cells; format: cell-based, human; settings: 2 μM, three independent experiments
# Excerpt: Finally, we tested RNA‐PROTACs for their ability to degrade their target in two cell lines: the embryonic NT2/D1 cell line, which expresses high levels of Lin28A, ^[13a] and K562 cells which express Lin28A and Lin28B. […] Finally, we co‐treated K562 cells with ORN3P1 and MG132, a reversible inhibitor of the 26S proteasome. […] In order to explore the versatility of RNA‐PROTACs with non peptide‐based VHL ligands, we conjugated small‐molecule VH032 ^[38] to ORN3 via an amino linker to yield ORN3VH032 (Figure S1). […]
# K562 cells = test: Intracellular uptake of FAM-labelled oligonucleotides, fluorescence microscopy; format: cell-based, human; settings: FAM-conjugated, 1 µM, 24 h
# QKI (pDEST-Myc-QKI) = test: Ubiquitination assay of Myc-QKI (negative control RBP) in 22Rv1 cells; format: cell-based; settings: pDEST-Myc-QKI and HA-Ub, 500 nM, 48 h
# Procedure: as §1, §2, §3, §4, §5
structure (smiles),measurement,setting,value
CC[C@H](C)[C@H](NC(=O)[C@H](Cc1ccc(O)cc1)NC(=O)[C@@H]1C[C@@H](O)CN1C(=O)[C@H](C)NC(=O)[C@H](CC(C)C)NC(=O)CCCCCNC(=O)[C@@H](N)CSC1CC(=O)N(CCOP(=O)(S)OC[C@H]2O[C@@H](n3cnc4c(N)ncnc43)[C@H](OCCOC)[C@@H]2OP(=O)(S)OC[C@H]2O[C@@H](n3cnc4c(=O)[nH]c(N)nc43)[C@H](OCCOC)[C@@H]2OP(=O)(S)OC[C@H]2O[C@@H](n3cnc4c(=O)[nH]c(N)nc43)[C@H](OCCOC)[C@@H]2OP(=O)(S)OC[C@H]2O[C@@H](n3cnc4c(N)ncnc43)[C@H](OCCOC)[C@@H]2OP(=O)(S)OC[C@H]2O[C@@H](n3cnc4c(=O)[nH]c(N)nc43)[C@H](OCCOC)[C@@H]2OP(=O)(S)OC[C@H]2O[C@@H](n3cnc4c(N)ncnc43)[C@H](OCCOC)[C@@H]2OP(=O)(S)OC[C@H]2O[C@@H](n3cc(C)c(=O)[nH]c3=O)[C@H](OCCOC)[C@@H]2O)C1=O)C(=O)O (some centres unmarked) [ORN3P1],ubiquitination of myc-Lin28A,myc-Lin28A,showed a smear on the gel towards higher molecular weight
same,Lin28A pull-down signal,Lin28A [1],strong signal for Lin28A protein
same,reduction of Lin28A,Lin28A [2],~50%
same,intracellular localization,K562 cells,present in the cytoplasm and nuclei of K562 cells
same,ubiquitination of QKI,QKI (pDEST-Myc-QKI),showed no such effects
